Assay results taken from PubChem BioAssay AID1919013 (Molecular Pharmacology Branch, DTP, NCI, 2023).

Tested on: LG0703-F498-PDC complex spheroid growth
Experiment: Anticancer human tumor LG0703-F498-PDC patient-derived lung adenocarcinoma cell line growth inhibition [AhR]
Settings: for IC50: curve of first compound; for viability, T/C: stronger effect = lower value
Summary of the method: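 Agents were dosed in half-log steps down from roughly clinical Cmax, or from 10 microM where Cmax was unknown, alone and with AhR antagonists. Read-out: percent test/control growth of tumor spheroids containing HUVEC and MSC stromal cells.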

[1] = second compound 0.1 µM, first compound 0.0316 µM
[2] = second compound 0.1 µM, first compound 0.1 µM
[3] = second compound 0.1 µM, first compound 0.316 µM
[4] = second compound 0.1 µM, first compound 1 µM
[5] = second compound 0.1 µM, first compound 3.16 µM
[6] = second compound 0.1 µM, first compound 10 µM
[7] = second compound 0.316 µM, first compound 0.0316 µM
[8] = second compound 0.316 µM, first compound 0.1 µM
[9] = second compound 0.316 µM, first compound 0.316 µM
[10] = second compound 0.316 µM, first compound 1 µM
[11] = second compound 0.316 µM, first compound 3.16 µM
[12] = second compound 0.316 µM, first compound 10 µM
[13] = second compound 1 µM, first compound 0.0316 µM
[14] = second compound 1 µM, first compound 0.1 µM
[15] = second compound 1 µM, first compound 0.316 µM
[16] = second compound 1 µM, first compound 1 µM
[17] = second compound 1 µM, first compound 3.16 µM
[18] = second compound 1 µM, first compound 10 µM
[19] = second compound 3.16 µM, first compound 0.0316 µM
[20] = second compound 3.16 µM, first compound 0.1 µM
[21] = second compound 3.16 µM, first compound 0.316 µM
[22] = second compound 3.16 µM, first compound 1 µM
[23] = second compound 3.16 µM, first compound 3.16 µM
[24] = second compound 3.16 µM, first compound 10 µM
[25] = second compound 10 µM, first compound 0.0316 µM
[26] = second compound 10 µM, first compound 0.1 µM
[27] = second compound 10 µM, first compound 0.316 µM
[28] = second compound 10 µM, first compound 1 µM
[29] = second compound 10 µM, first compound 3.16 µM
[30] = second compound 10 µM, first compound 10 µM
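Further: luminescence taken as a proxy for viable cell amount.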
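Wherever viability, T/C is given: percent of DMSO vehicle control where 100% means growth equal to vehicle.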

SMILES: CCc1c2c(nc3ccc(O)cc13)-c1cc3c(c(=O)n1C2)COC(=O)[C@]3(O)CC + Cc1cncc(-c2nc(NCCc3c[nH]c4ccccc34)c3ncn(C(C)C)c3n2)c1
- IC50 (second compound 0.1 µM): 15.3 nM
- IC50 (second compound 0.316 µM): 11.1 nM
- IC50 (second compound 1 µM): 11.9 nM
- IC50 (second compound 3.16 µM): < 0.949 nM
- IC50 (second compound 10 µM): < 0.949 nM
- viability, T/C (second compound 0.1 µM, first compound 0.000949 µM): 102%
- viability, T/C (second compound 0.1 µM, first compound 0.003 µM): 82.4%
- viability, T/C (second compound 0.1 µM, first compound 0.00949 µM): 55.5%
- viability, T/C (second compound 0.1 µM, first compound 0.03 µM): 39.3%
- viability, T/C (second compound 0.1 µM, first compound 0.0949 µM): 29.1%
- viability, T/C (second compound 0.1 µM, first compound 0.3 µM): 19.2%
- viability, T/C (second compound 0.316 µM, first compound 0.000949 µM): 92.1%
- viability, T/C (second compound 0.316 µM, first compound 0.003 µM): 72.4%
- viability, T/C (second compound 0.316 µM, first compound 0.00949 µM): 51.2%
- viability, T/C (second compound 0.316 µM, first compound 0.03 µM): 37.1%
- viability, T/C (second compound 0.316 µM, first compound 0.0949 µM): 25.2%
- viability, T/C (second compound 0.316 µM, first compound 0.3 µM): 18.3%
- viability, T/C (second compound 1 µM, first compound 0.000949 µM): 80.5%
- viability, T/C (second compound 1 µM, first compound 0.003 µM): 76.5%
- viability, T/C (second compound 1 µM, first compound 0.00949 µM): 49.7%
- viability, T/C (second compound 1 µM, first compound 0.03 µM): 35.7%
- viability, T/C (second compound 1 µM, first compound 0.0949 µM): 22.1%
- viability, T/C (second compound 1 µM, first compound 0.3 µM): 13.6%
- viability, T/C (second compound 3.16 µM, first compound 0.000949 µM): 44.5%
- viability, T/C (second compound 3.16 µM, first compound 0.003 µM): 37.7%
- viability, T/C (second compound 3.16 µM, first compound 0.00949 µM): 33%
- viability, T/C (second compound 3.16 µM, first compound 0.03 µM): 29.1%
- viability, T/C (second compound 3.16 µM, first compound 0.0949 µM): 16.3%
- viability, T/C (second compound 3.16 µM, first compound 0.3 µM): 11.9%
- viability, T/C (second compound 10 µM, first compound 0.000949 µM): 1.16%
- viability, T/C (second compound 10 µM, first compound 0.003 µM): 1.16%
- viability, T/C (second compound 10 µM, first compound 0.00949 µM): 2.25%
- viability, T/C (second compound 10 µM, first compound 0.03 µM): 1.82%
- viability, T/C (second compound 10 µM, first compound 0.0949 µM): 1.25%
- viability, T/C (second compound 10 µM, first compound 0.3 µM): 1.61%

SMILES: Nc1ccccc1NC(=O)c1ccc(CNC(=O)OCc2cccnc2)cc1 + Cc1cncc(-c2nc(NCCc3c[nH]c4ccccc34)c3ncn(C(C)C)c3n2)c1
- IC50 (second compound 0.1 µM): 849 nM
- IC50 (second compound 0.316 µM): 563 nM
- IC50 (second compound 1 µM): 571 nM
- IC50 (second compound 3.16 µM): < 31.6 nM
- IC50 (second compound 10 µM): < 31.6 nM
- viability, T/C [1]: 93%
- viability, T/C [2]: 89.2%
- viability, T/C [3]: 68.7%
- viability, T/C [4]: 53.4%
- viability, T/C [5]: 4.49%
- viability, T/C [6]: 0.69%
- viability, T/C [7]: 100%
- viability, T/C [8]: 90.4%
- viability, T/C [9]: 67.2%
- viability, T/C [10]: 34.5%
- viability, T/C [11]: 3.29%
- viability, T/C [12]: 0.43%
- viability, T/C [13]: 78.4%
- viability, T/C [14]: 87.5%
- viability, T/C [15]: 62.8%
- viability, T/C [16]: 36.5%
- viability, T/C [17]: 2.86%
- viability, T/C [18]: 0.16%
- viability, T/C [19]: 34%
- viability, T/C [20]: 23.7%
- viability, T/C [21]: 21%
- viability, T/C [22]: 10.6%
- viability, T/C [23]: 3.34%
- viability, T/C [24]: 0.15%
- viability, T/C [25]: 0.75%
- viability, T/C [26]: 0.81%
- viability, T/C [27]: 0.77%
- viability, T/C [28]: 0.69%
- viability, T/C [29]: 0.77%
- viability, T/C [30]: 0.17%

SMILES: Nc1ccn(C2OC(CO)C(O)C2(F)F)c(=O)n1 (stereo not given) + Cc1cncc(-c2nc(NCCc3c[nH]c4ccccc34)c3ncn(C(C)C)c3n2)c1
- IC50 (second compound 0.1 µM): < 31.6 nM
- IC50 (second compound 0.316 µM): < 31.6 nM
- IC50 (second compound 1 µM): < 31.6 nM
- IC50 (second compound 3.16 µM): < 31.6 nM
- IC50 (second compound 10 µM): < 31.6 nM
- viability, T/C [1]: 40.6%
- viability, T/C [2]: 36.2%
- viability, T/C [3]: 31.3%
- viability, T/C [4]: 28.9%
- viability, T/C [5]: 28.2%
- viability, T/C [6]: 18.8%
- viability, T/C [7]: 39.7%
- viability, T/C [8]: 37.6%
- viability, T/C [9]: 35%
- viability, T/C [10]: 28.1%
- viability, T/C [11]: 26.4%
- viability, T/C [12]: 17.9%
- viability, T/C [13]: 33.5%
- viability, T/C [14]: 40%
- viability, T/C [15]: 32.2%
- viability, T/C [16]: 28.8%
- viability, T/C [17]: 24.1%
- viability, T/C [18]: 19.9%
- viability, T/C [19]: 24.4%
- viability, T/C [20]: 26.7%
- viability, T/C [21]: 29.4%
- viability, T/C [22]: 19.5%
- viability, T/C [23]: 18.1%
- viability, T/C [24]: 17.9%
- viability, T/C [25]: 0.88%
- viability, T/C [26]: 1.65%
- viability, T/C [27]: 1.55%
- viability, T/C [28]: 1.08%
- viability, T/C [29]: 1.14%
- viability, T/C [30]: 1.93%

SMILES: O=C(c1cc(Cc2n[nH]c(=O)c3ccccc23)ccc1F)N1CCN(C(=O)C2CC2)CC1 + Cc1cncc(-c2nc(NCCc3c[nH]c4ccccc34)c3ncn(C(C)C)c3n2)c1
- IC50 (second compound 0.1 µM): > 10000 nM
- IC50 (second compound 0.316 µM): > 10000 nM
- IC50 (second compound 1 µM): > 10000 nM
- IC50 (second compound 3.16 µM): < 31.6 nM
- IC50 (second compound 10 µM): < 31.6 nM
- viability, T/C [1]: 105%
- viability, T/C [2]: 98.5%
- viability, T/C [3]: 99.3%
- viability, T/C [4]: 84.1%
- viability, T/C [5]: 93.4%
- viability, T/C [6]: 72.5%
- viability, T/C [7]: 90.7%
- viability, T/C [8]: 103%
- viability, T/C [9]: 95%
- viability, T/C [10]: 95.5%
- viability, T/C [11]: 89.4%
- viability, T/C [12]: 80.8%
- viability, T/C [13]: 108%
- viability, T/C [14]: 95.9%
- viability, T/C [15]: 99.8%
- viability, T/C [16]: 99.4%
- viability, T/C [17]: 98.3%
- viability, T/C [18]: 78.1%
- viability, T/C [19]: 40.2%
- viability, T/C [20]: 43.1%
- viability, T/C [21]: 51.7%
- viability, T/C [22]: 46.2%
- viability, T/C [23]: 40%
- viability, T/C [24]: 43%
- viability, T/C [25]: 0.8%
- viability, T/C [26]: 0.83%
- viability, T/C [27]: 0.8%
- viability, T/C [28]: 0.79%
- viability, T/C [29]: 0.66%
- viability, T/C [30]: 1.47%
